Reference: US20240246981A1, “[…] DERIVATIVES AS INHIBITORS OF […]-PEPTIDE CYCLOTRANSFERASE AND […]-PEPTIDE CYCLOTRANSFERASE LIKE PROTEIN” (Boehringer Ingelheim International GmbH, priority 2022, published 2024)
Like-named read-outs stand apart in the source and are kept apart here.

What was measured:
[1] = system: SIRPα signalling induced by A549 cells; test: Assay B: SIRPα signalling assay using A549 cells; format: cell-based, human
Procedure: Two cell types are independently used: the Raji cell line (lymphoblastlike human cell line derived from B lymphocytes from a Burkitt's lymphoma patient in 1963) and A549 cells (adenocarcinomic human alveolar basal epithelial cells).
Test compounds were dissolved in 100% DMSO and serially diluted into a white 384-well microtiter cell culture plate (PerkinElmer #60076780 in case of Raji assay; PDL-coated plates Greiner #781945 in case of A549 assay). 5000 Raji cells (ATCC #CC86) or 5000 A549 cells (ATCC #CCL-185) in Assay Complete Cell Plating reagent 30 (DiscoverX 93-0563R30B) were added per well. The assay plate was incubated for 48 h at 37° C., 95% humidity and 5% CO2. 15000 reporter cells (Jurkat PathHunter SIRPα V1, DiscoverX #93-1135C19) were added to each well, and the plate was incubated for 5 h at 37° C., 95% humidity and 5% CO2. Bioassay reagent 1 of the PathHunter Bioassay detection kit (DiscoverX 93-0001) was added to each well of the plate using a multichannel pipette followed by a 15 min incubation at room temperature. Afterwards bioassay reagent 2 was added followed by 60 min incubation at room temperature (incubation in the dark).
The analysis of the data was performed using the luminescence signal generated by beta-galactosidase in the PathHunter reporter cell line. The luminescence measurement was done using a Pherastar Multi-Mode Reader. Dose-response curves & IC50 data were calculated with 4-parameter sigmoidal dose response formula.

[2] = system: SIRPα signalling induced by Raji cells; test: Assay B: SIRPα signalling assay using Raji cells; format: cell-based, human
Procedure: Bioassay reagent 1 of the PathHunter Bioassay detection kit (DiscoverX 93-0001) was added to each well of the plate using a multichannel pipette followed by a 15 min incubation at room temperature. Afterwards bioassay reagent 2 was added followed by 60 min incubation at room temperature (incubation in the dark).
The analysis of the data was performed using the luminescence signal generated by beta-galactosidase in the PathHunter reporter cell line. The luminescence measurement was done using a Pherastar Multi-Mode Reader.

QPCTL = QPCTL (Homo sapiens (Human), UniProt Q9NXS2); test: Assay A: biochemical QPCTL activity assay (MALDI-TOF MS); details: compounds of the invention, Table 2; read-out: Inhibition of QPCTL: IC50
Sequence of QPCTL (Q9NXS2 whole entry): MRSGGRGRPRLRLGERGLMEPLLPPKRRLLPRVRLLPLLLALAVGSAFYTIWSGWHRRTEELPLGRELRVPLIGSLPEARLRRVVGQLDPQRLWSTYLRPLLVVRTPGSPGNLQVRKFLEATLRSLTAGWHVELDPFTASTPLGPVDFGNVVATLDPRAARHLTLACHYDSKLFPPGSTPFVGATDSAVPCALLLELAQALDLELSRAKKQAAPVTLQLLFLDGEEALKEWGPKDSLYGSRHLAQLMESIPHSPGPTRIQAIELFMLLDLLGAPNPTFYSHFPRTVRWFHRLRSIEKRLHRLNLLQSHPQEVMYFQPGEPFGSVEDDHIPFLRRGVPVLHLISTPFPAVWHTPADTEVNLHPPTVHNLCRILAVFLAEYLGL
Procedure: (§1) QPCT or QPCTL dependent conversion of N-terminal glutamine to pyroglutamate of CD47 was monitored via MALDI-TOF MS. Test compounds were dissolved in 100% DMSO and serially diluted into clear 1,536-well microtiter plates. Enzymatic reactions were set up in assay buffer containing 20 mM Tris pH 7.5, 0.1 mM TCEP, 0.01% BSA, and 0.001% Tween20. […] The plates were incubated for 10 min in a humidified incubator at 24° C. Subsequently, 2.5 μL of CD47 peptide substrate surrogate (^19[…]^33) was added to each well (final concentration: 10 μM for QPCTL/20 μM for QPCT). The plates were mixed for 30 sec at 1,000 rpm and subsequently incubated for 40 min in a humidified incubator at 24° C. […] The plates were sealed with an adhesive foil, mixed for 30 s at 1,000 rpm and stored at room temperature until preparation of the MALDI target plates. […] QPCT or QPCTL activity was monitored by calculating the ratio between product and internal standard signals followed by normalization to high (100% activity) and low (0% activity) controls. Determination of compound potencies was obtained by fitting the dose-response data to a four-parameter logistical equation.

Caco-2 cells = test: Assay C: permeability in CACO-2 cells; format: in vitro ADME; details: for Permeability A-B: Caco-2, apical to basolateral
Procedure: (§2) Compounds are dissolved in appropriate solvent (like DMSO, 1-20 mM stock solutions). […] The transport solution (TL) is applied to the apical or basolateral donor side for measuring A-B or B-A permeability (3 filter replicates), respectively. Samples are collected at the start and end of experiment from the donor and at various time intervals for up to 2 hours also from the receiver side for concentration measurement by HPLC-MS/MS or scintillation counting. Sampled receiver volumes are replaced with fresh receiver solution.

QPCT = QPCT (Homo sapiens (Human), UniProt Q16769); test: Assay A: biochemical QPCT activity assay (MALDI-TOF MS); details: compounds of the invention, Table 2; read-out: Inhibition of QPCT: IC50
Sequence of QPCT (Q16769 29-361): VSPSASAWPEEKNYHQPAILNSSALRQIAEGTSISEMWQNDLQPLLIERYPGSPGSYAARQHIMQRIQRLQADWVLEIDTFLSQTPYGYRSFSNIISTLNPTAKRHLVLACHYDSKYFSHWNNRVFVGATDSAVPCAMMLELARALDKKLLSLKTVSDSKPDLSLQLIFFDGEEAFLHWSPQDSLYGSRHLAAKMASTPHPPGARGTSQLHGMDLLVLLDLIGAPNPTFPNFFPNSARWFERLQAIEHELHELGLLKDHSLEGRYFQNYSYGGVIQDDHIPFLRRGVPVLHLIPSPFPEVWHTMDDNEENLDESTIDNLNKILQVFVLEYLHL
Procedure: as §1

[3] = Assay C: permeability in CACO-2 cells; format: in vitro ADME; details: human, pH 7.2, compounds of the invention, Table 7; for Papp A→B: Caco-2, apical to basolateral; for efflux ratio: Caco-2
Procedure: as §2

[4] = Homo sapiens, compounds of the invention, Table 4, read-out: Inhibition of SIRα signalling induced by A549 cells: IC50
[5] = Homo sapiens, compounds of the invention, Table 4, read-out: Inhibition of SIRα signalling induced by Raji cells: IC50

Row | SMILES | IC50 ([1]; compounds of the invention, Table 4, read-out: Inhibition of SIRα signalling induced by A549 cells: IC50) [nM] | IC50 ([2]; compounds of the invention, Table 4, read-out: Inhibition of SIRα signalling induced by Raji cells: IC50) [nM] | IC50 (QPCTL) [nM] | Permeability A-B (Caco-2 cells; compounds of the invention, Table 7) | efflux ratio (Caco-2 cells; Caco-2, compounds of the invention, Table 7) | IC50 (QPCT) [nM] | IC50 ([1]; prior art compounds, Table 5, read-out: Inhibition of SIRPα signalling induced by A549 cells: IC50) [nM] | IC50 ([2]; prior art compounds, Table 5, read-out: Inhibition of SIRPα signalling induced by Raji cells: IC50) [nM] | Permeability A-B (Caco-2 cells; prior art compounds, Table 8) | IC50 [1, 4] [nM] | IC50 [2, 5] [nM] | Papp A→B [3] [×10⁻⁶ cm/s] | efflux ratio [3]
1 | CNC(=O)c1cncc(-c2cccc(C#N)c2N2CCC(c3nncn3C)CC2)c1 [Example 80] | 176 | 336 | 2 | 0.2 10^−6 cm/s | 37.8 | 11 |  |  |  |  |  |  | 
2 | Cn1cnnc1C1CCN(c2ncccc2-c2ccc(F)nc2)CC1 [SEN177, reference compound] |  |  |  |  |  |  | 214 | 1360 | 11.0 10^−6 cm/s |  |  |  | 
3 | Cn1cnnc1C1(F)CCN(c2c(C#N)cccc2-c2cnc(=O)n(Cc3ccccc3)c2)CC1 [compound 59] |  |  | 2 |  |  | 8 |  |  |  | 619 | 746 | 0.4 | 34.1
4 | Cn1cnnc1C1(F)CCN(c2c(C#N)cccc2-c2cnc3nn(C(C)(C)C(F)(F)F)cc3c2)CC1 [compound 61] |  |  | 2 |  |  | 1 |  |  |  | 22 | 23 | 8 | 8.9
5 | Cn1cnnc1C1(F)CCN(c2c(C#N)cccc2-c2cnc3nn(C(C)(C)C)cc3c2)CC1 [compound 62] |  |  | 1 |  |  | 1 |  |  |  | 11 | 21 | 4.9 | 19
6 | Cn1cnnc1C1(F)CCN(c2c(C#N)cccc2-c2cnc3nnn(Cc4ccccc4)c3c2)CC1 [compound 63] |  |  | 1 |  |  | 3 |  |  |  | 9 | 13 | 3.3 | 14.5
7 | Cn1cnnc1C1(F)CCN(c2c(C#N)cccc2-c2cnc3nn(Cc4ccccc4)nc3c2)CC1 [compound 64] |  |  | 2 |  |  | 5 |  |  |  | 19 | 61 | 29 | 1.2
8 | Cn1cnnc1C1(C)CCN(c2c(C#N)cccc2-c2ccc(F)nc2)CC1 [compound 66] |  |  | 3 |  |  | 2 |  |  |  | 14 | 100 | 30 | 1.4
9 | Cn1cnnc1C1CCN(c2c(C#N)cccc2-c2cccnc2)CC1 [compound 67] |  |  | 6 |  |  | 24 |  |  |  | 58 | 229 | 5.3 | 7.4
10 | Cn1cnnc1C1(F)CCN(c2c(C#N)cccc2-c2cnc3ncccc3c2)CC1 [compound 68] |  |  | 7 |  |  | 13 |  |  |  | 274 | 366 | 0.6 | 47.5
11 | Cn1cnnc1C1(F)CCN(c2c(C#N)cccc2-c2cnn3ncccc23)CC1 [compound 70] |  |  | 5 |  |  | 2 |  |  |  | 74 | 79 | 14 | 2.4
12 | Cn1cnnc1C1(F)CCN(c2c(C#N)cccc2-c2cnc3nc(C(C)(C)C)cn3c2)CC1 [compound 71] |  |  | 2 |  |  | 1 |  |  |  | 27 | 49 | 2.7 | 24.4
13 | Cn1cnnc1C1(F)CCN(c2c(C#N)cccc2-c2cnc3nc(C(C)(C)C)nn3c2)CC1 [compound 72] |  |  | 1 |  |  | 1 |  |  |  | 20 | 28 | 3.9 | 14.4
14 | Cn1cnnc1C1(F)CCN(c2c(C#N)cccc2-c2cnc3nc(C(F)(F)F)nn3c2)CC1 [compound 73] |  |  | 4 |  |  | 8 |  |  |  | 122 | 261 | 3.3 | 14.8
15 | Cn1cnnc1C1(F)CCN(c2c(C#N)cccc2-c2cnc3nc(C(F)(F)F)cn3c2)CC1 [compound 74] |  |  | 1 |  |  | 1 |  |  |  | 26 | 18 | 1.7 | 14.1
16 | Cn1cnnc1C1(F)CCN(c2c(C#N)cccc2-c2cnc3nn(C(F)(F)F)cc3c2)CC1 [compound 75] |  |  | 1 |  |  | 1 |  |  |  | 7 | 7 | 12 | 4
17 | Cn1cnnc1C1CCN(c2c(C#N)cccc2-c2cncc3cnn(Cc4ccccc4)c23)CC1 [compound 76] |  |  | 1 |  |  | 5 |  |  |  | 46 | 40 | 2.6 | 22.3
18 | Cn1cnnc1C1CCN(c2c(C#N)cccc2-c2cncc3cn(Cc4ccccc4)nc23)CC1 [compound 77] |  |  | 30 |  |  | 88 |  |  |  | 1860 | 374 | 0.7 | 52.3
19 | Cn1cnnc1C1(F)CCN(c2c(C#N)cccc2-c2cncc3cn(Cc4ccccc4)nc23)CC1 [compound 78] |  |  | 34 |  |  | 42 |  |  |  | 440 | 456 | 6.5 | 7.4
20 | Cn1cnnc1C1(F)CCN(c2c(C#N)cccc2-c2cnn3nc(-c4cccc(Cl)c4)ccc23)CC1 [compound 79] |  |  | 2 |  |  | 3 |  |  |  | 22 | 16 | 40 | 0.7
21 | Cn1cnnc1C1CCN(c2c(C#N)cccc2-c2cnn3nc(-c4cccc(Cl)c4)ccc23)CC1 [compound 81] |  |  | 1 |  |  | 5 |  |  |  | 27 | 27 | 39 | 0.7
22 | Cc1cc(-c2cccc(C#N)c2N2CCC(F)(c3nncn3C)CC2)cnc1F [compound 82] |  |  | 2 |  |  | 3 |  |  |  | 17 | 63 | 41 | 1.6
23 | Cc1cc(F)ncc1-c1cccc(C#N)c1N1CCC(F)(c2nncn2C)CC1 [compound 83] |  |  | 1 |  |  | 3 |  |  |  | 47 | 102 | 55 | 1.3
24 | Cn1cnnc1C1(F)CCN(c2c(C#N)cccc2-c2cnc3nc(-c4cccc(Cl)c4)ccn23)CC1 [compound 84] |  |  | 3 |  |  | 6 |  |  |  | 63 | 91 | 33 | 1.8
25 | Cn1cnnc1C1(F)CCN(c2c(C#N)cccc2-c2cnc(F)cc2Cl)CC1 [compound 85] |  |  | 3 |  |  | 4 |  |  |  | 80 | 70 |  | 1.8
26 | Cn1cnnc1C1(F)CCN(c2c(C#N)cccc2-c2cnc3nn(C(C)(C)C)c(Cl)c3c2)CC1 [compound 86] |  |  | 1 |  |  | 1 |  |  |  | 23 | 13 | 18 | 1.6
